The record followed here is patent publication EP3623369A1, “NOVEL MORPHOLINYL AMINE COMPOUNDS FOR THE TREATMENT OF AUTOIMMUNE DISEASE” (F. Hoffmann-La Roche AG, priority 2018, dated 2020).

pIC50: −log10 of the molar value.

This assay deals with T1, hTLR9 (Homo sapiens, UniProt Q9NR96).
T1 sequence (Q9NR96 26-1032): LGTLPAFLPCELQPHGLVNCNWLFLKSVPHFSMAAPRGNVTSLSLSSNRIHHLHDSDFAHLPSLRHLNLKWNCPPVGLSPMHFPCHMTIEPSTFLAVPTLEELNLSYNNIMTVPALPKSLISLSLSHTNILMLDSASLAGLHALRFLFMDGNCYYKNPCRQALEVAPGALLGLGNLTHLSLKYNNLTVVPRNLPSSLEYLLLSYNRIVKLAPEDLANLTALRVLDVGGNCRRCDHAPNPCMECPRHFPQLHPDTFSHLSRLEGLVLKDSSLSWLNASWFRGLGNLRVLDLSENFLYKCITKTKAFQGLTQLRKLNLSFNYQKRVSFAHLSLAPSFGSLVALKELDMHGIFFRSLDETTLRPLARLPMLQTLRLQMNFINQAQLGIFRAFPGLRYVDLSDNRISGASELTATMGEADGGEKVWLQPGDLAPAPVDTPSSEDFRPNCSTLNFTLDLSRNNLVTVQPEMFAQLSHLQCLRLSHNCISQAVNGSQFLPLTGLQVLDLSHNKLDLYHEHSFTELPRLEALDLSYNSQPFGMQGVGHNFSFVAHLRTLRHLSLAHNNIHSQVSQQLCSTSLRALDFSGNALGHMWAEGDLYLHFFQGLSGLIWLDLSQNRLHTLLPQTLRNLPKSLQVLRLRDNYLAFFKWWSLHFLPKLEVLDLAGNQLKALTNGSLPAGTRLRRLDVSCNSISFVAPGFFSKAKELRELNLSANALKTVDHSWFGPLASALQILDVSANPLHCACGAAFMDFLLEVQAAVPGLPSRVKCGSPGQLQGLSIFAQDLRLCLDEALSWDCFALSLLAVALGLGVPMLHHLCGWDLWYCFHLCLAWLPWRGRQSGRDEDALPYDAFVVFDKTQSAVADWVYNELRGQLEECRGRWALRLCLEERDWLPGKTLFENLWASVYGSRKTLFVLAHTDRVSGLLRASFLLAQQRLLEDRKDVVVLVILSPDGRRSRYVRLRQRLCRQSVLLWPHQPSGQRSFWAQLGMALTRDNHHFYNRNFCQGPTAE
The experiment in a line: HEK293-Blue-hTLR-9 cells assay (SEAP reporter, ODN2006 stimulation). The assay is classed as cell-based. To be noted: HEK293-Blue-hTLR9 cells, ODN2006, 20 hrs; 0.032 is the lowest tested concentration; read-out: HEK/hTLR9 IC50. In outline: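 HEK293-Blue cells with an NF-κB/AP-1-driven SEAP reporter were exposed to serially diluted compound (1% DMSO final) plus ODN2006 for 20 h at 37 °C. Supernatant SEAP was developed with QUANTI-Blue for 2 h at 37 °C and absorbance read at 620–655 nm; antagonism appears as reduced reporter signal.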

For `C[C@@H]1CN(c2ccc(C#N)c3ncccc23)C[C@H](CN2Cc3cc(N4CCN(C)CC4)cc(F)c3C2)O1` [Example 69, 5-[(2S,6R)-2-[[4-fluoro-6-(4-methylpiperazin-1-yl)isoindolin-2-yl]methyl]-6-methyl-morpholin-4-yl]quinoline-8-carbonitrile], the pIC50 was 7.09.

For `C[C@@H]1CN(c2ccc(C#N)c3ncccc23)C[C@H](CN2CCc3cc(N4CCNCC4)ncc3C2)O1` [Example 70, 5-[(2R,6S)-2-methyl-6-[(6-piperazin-1-yl-3,4-dihydro-1H-2,7-naphthyridin-2-yl)methyl]morpholin-4-yl]quinoline-8-carbonitrile], the pIC50 was greater than 7.49.

As for `C[C@@H]1CN(c2ccc3c(c2)CN(C[C@H]2CN(c4ccc(C#N)c5ncccc45)C[C@@H](C)O2)C3)C[C@H](C)N1` [Example 71, 5-[(2R,6S)-2-methyl-6-[[5-[(3R,5S)-3,5-dimethylpiperazin-1-yl]isoindolin-2-yl]methyl]morpholin-4-yl]quinoline-8-carbonitrile], the pIC50 was 7.14.

`C[C@@H]1CN(c2ccc(C#N)c3ncccc23)C[C@H](CN2Cc3ccc(N4CC5COCC(C4)N5)cc3C2)O1` [Example 72, 5-[(2R,6S)-2-methyl-6-[[5-(3-oxa-7,9-diazabicyclo[3.3.1]nonan-7-yl)isoindolin-2-yl]methyl]morpholin-4-yl]quinoline-8-carbonitrile]: the pIC50 was 7.18.

For `C[C@@H]1CN(c2ccc(C#N)c3ncccc23)C[C@H](CN2Cc3ccc(N4CCNCC4CO)cc3C2)O1` (stereo partly drawn) [Example 73, 5-[(2S,6R)-2-[[5-[2-(hydroxymethyl)piperazin-1-yl]isoindolin-2-yl]methyl]-6-methyl-morpholin-4-yl]quinoline-8-carbonitrile], the pIC50 was 7.22.

`C[C@@H]1CN(c2ccc(C#N)c3ncccc23)C[C@H](CN2Cc3ccc(CN4CCCCC4)cc3C2)O1` [Example 74, 5-[(2R,6S)-2-methyl-6-[[5-(1-piperidylmethyl)isoindolin-2-yl]methyl]morpholin-4-yl]quinoline-8-carbonitrile]: the pIC50 is 7.14.

Take `C[C@@H]1CN(c2ccc(C#N)c3ncccc23)C[C@H](CN2Cc3ccc(N4CCNCC4)cc3C(O)C2)O1` (stereo partly drawn) [Example 75, 5-[(2S,6R)-2-[(4-hydroxy-6-piperazin-1-yl-3,4-dihydro-1H-isoquinolin-2-yl)methyl]-6-methyl-morpholin-4-yl]quinoline-8-carbonitrile]: the pIC50 was 7.26.

Regarding `C[C@@H]1CN(c2ccc(C#N)c3ncccc23)C[C@H](CN2Cc3ccc(N4CCNCC4C(F)F)cc3C2)O1` (stereo partly drawn) [Example 76, 5-[(2S,6R)-2-[[5-[2-(difluoromethyl)piperazin-1-yl]isoindolin-2-yl]methyl]-6-methyl-morpholin-4-yl]quinoline-8-carbonitrile], the pIC50 was 6.72.

Consider `C[C@@H]1CN(c2ccc(C#N)c3ncccc23)C[C@H](CN2Cc3ccc(N4CC(N)C4)cc3C2)O1` [Example 77, 5-[(2S,6R)-2-[[5-(3-aminoazetidin-1-yl)isoindolin-2-yl]methyl]-6-methyl-morpholin-4-yl]quinoline-8-carbonitrile], for which the pIC50 was 6.62.

As to `CC1CNCCN1c1ccc2c(c1)CN(C[C@H]1CN(c3ccc(C#N)c4ncccc34)C[C@@H](C)O1)C2` (stereo partly drawn) [Example 78, 5-[(2R,6S)-2-methyl-6-[[5-(2-methylpiperazin-1-yl)isoindolin-2-yl]methyl]morpholin-4-yl] quinoline-8-carbonitrile], the pIC50 is 6.79.

`C[C@@H]1CN(c2ccc(C#N)c3ncccc23)C[C@H](CN2CCc3nc(N4CCNCC4)ccc3C2)O1` [Example 79, 5-[(2R,6S)-2-methyl-6-[(2-piperazin-1-yl-7,8-dihydro-5H-1,6-naphthyridin-6-yl)methyl]morpholin-4-yl]quinoline-8-carbonitrile]: the pIC50 was greater than 7.49.

For the compound `C[C@@H]1CN(c2ccc(C#N)c3ncccc23)C[C@H](CN2Cc3ccc(N4CCNCC4)nc3C2)O1` [Example 80, 5-[(2R,6S)-2-methyl-6-[(2-piperazin-1-yl-5,7-dihydropyrrolo[3,4-b]pyridin-6-yl)methyl]morpholin-4-yl]quinoline-8-carbonitrile], the pIC50 is 7.25.

In the case of `C[C@@H]1CN(c2ccc(C#N)c3ncccc23)C[C@H](CN2Cc3ccc(N4CCNC[C@@H]4CO)cc3C2)O1` [Example 82, 5-[(2S,6R)-2-[[5-[(2R)-2-(hydroxymethyl)piperazin-1-yl]isoindolin-2-yl]methyl]-6-methyl-morpholin-4-yl]quinoline-8-carbonitrile], the pIC50 was 7.27.

Turning to `C[C@@H]1CN(c2ccc(C#N)c3ncccc23)C[C@H](CN2Cc3ccc(N4CCNC[C@H]4CO)cc3C2)O1` [Example 83, 5-[(2S,6R)-2-[[5-[(2S)-2-(hydroxymethyl)piperazin-1-yl]isoindolin-2-yl]methyl]-6-methyl-morpholin-4-yl]quinoline-8-carbonitrile], the pIC50 was 7.20.

With `C[C@@H]1CN(c2ccc(C#N)c3nccnc23)C[C@H](CNCc2ccc(N3CCNCC3)cc2)O1` [Example 84, 8-[(2R,6S)-2-methyl-6-[[(4-piperazin-1-ylphenyl)methylamino]methyl]morpholin-4-yl]quinoxaline-5-carbonitrile], the pIC50 is 7.30.

As to `C[C@@H]1CN(c2ccc(C#N)c3ncccc23)C[C@H](CNCc2ccc(N3CCNCC3)cc2)O1` [Example 86, 5-[(2R,6S)-2-methyl-6-[[(4-piperazin-1-ylphenyl)methylamino]methyl]morpholin-4-yl] quinoline-8-carbonitrile], the pIC50 was greater than 7.49.

Turning to `C[C@@H]1CN(c2ccc(C#N)n3nccc23)C[C@H](CN2CCc3cnccc3C2)O1` [Example R1, 4-[(2S,6R)-2-(3,4-dihydro-1H-2,6-naphthyridin-2-ylmethyl)-6-methyl-morpholin-4-yl]pyrazolo[1,5-a]pyridine-7-carbonitrile, reference compound], the pIC50 is 4.30.

As to `C[C@@H]1CN(c2ccc(C#N)n3nccc23)C[C@H](CN2Cc3ccncc3C2)O1` [Example R2, 4-[(2S,6R)-2-(1,3-dihydropyrrolo[3,4-c]pyridin-2-ylmethy1)-6-methyl-morpholin-4-yl]pyrazolo[1,5-a]pyridine-7-carbonitrile, reference compound], the pIC50 is 4.33.

For `C[C@@H]1CN(c2ccc(C#N)c3ncccc23)C[C@H](CN2Cc3ccccc3C2)O1` [Example R3, 5-[(2S,6R)-2-(isoindolin-2-ylmethyl)-6-methyl-morpholin-4-yl]quinoline-8-carbonitrile, reference compound], the pIC50 was 5.26.
